The record followed here is patent US11370769B2, “TRPC5 inhibitors and methods of using same” (BOARD OF REGENTS OF THE UNIVERSITY OF NEBRASKA, priority 2017, dated 2022).

Each structure is given as a SMILES string.

One assay concerns the target T1, TRPC6 (Homo sapiens, UniProt Q9Y210).
T1 construct: expressed in transfected cells; host or cells: HEK293
T1 sequence (Q9Y210 1-931): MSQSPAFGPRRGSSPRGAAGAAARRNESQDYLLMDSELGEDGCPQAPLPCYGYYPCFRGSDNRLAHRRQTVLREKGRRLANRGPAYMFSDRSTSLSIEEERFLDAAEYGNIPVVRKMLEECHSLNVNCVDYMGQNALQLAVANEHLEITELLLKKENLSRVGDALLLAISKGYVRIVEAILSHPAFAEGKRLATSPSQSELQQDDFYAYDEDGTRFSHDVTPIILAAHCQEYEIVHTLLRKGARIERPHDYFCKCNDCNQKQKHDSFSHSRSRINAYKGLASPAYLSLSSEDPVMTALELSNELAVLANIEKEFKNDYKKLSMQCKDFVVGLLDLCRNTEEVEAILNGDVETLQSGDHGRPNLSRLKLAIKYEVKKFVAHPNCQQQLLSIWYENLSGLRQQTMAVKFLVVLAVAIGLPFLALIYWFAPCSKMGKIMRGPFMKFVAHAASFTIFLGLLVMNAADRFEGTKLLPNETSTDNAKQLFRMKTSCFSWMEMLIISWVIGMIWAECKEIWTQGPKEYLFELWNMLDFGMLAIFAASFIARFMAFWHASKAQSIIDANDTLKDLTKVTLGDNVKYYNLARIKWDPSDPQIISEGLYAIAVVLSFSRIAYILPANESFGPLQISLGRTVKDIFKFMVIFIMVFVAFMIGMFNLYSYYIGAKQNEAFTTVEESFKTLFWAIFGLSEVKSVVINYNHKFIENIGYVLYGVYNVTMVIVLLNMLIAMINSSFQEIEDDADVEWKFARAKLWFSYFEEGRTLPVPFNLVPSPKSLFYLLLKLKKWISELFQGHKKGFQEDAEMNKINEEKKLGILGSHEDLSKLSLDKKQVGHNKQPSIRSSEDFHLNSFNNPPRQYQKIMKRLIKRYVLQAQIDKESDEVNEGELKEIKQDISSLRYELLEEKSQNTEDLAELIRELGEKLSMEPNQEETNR
Briefly: HEK293 whole-cell patch clamp recording, TRPC6 inhibition assay. The assay is classed as cell-based. As to conditions: 30 μM, HEK cells expressing TRPC6, OAG 30 μM. The procedure: (§1) TRPC4, TRPC5, and TRPC6 inhibition assay: HEK293 whole-cell recordings Whole-cell patch clamp recording was performed 16 h after transfection. The bath solution contained (in mM): 140 NaCl, 5 KCl, 10 HEPES, 2 MgCl2, 2 CaCl2, 10 glucose with pH7.4 adjusted with NaOH. The intracellular solution contained (in mM): 140 KCl, 5 EGTA, 10 HEPES, 2 MgCl2 with pH7.4 adjusted with KOH. The patch pipettes were made using a two-step-protocol (P-97, Sutter Instrument). The pipette resistance was maintained between 4 to 8 MΩ. Once the whole-cell configuration was achieved, cells were clamped at a holding potential of −60 mV, and given a 50 ms ramp stimulation from −100 mV to +100 mV in every 5 s. All currents were filtered at 2 KHz (Axopatch 200B amplifier, Axon Instruments, Union City, Calif.) and digitized at 10 KHz for whole-cell recordings using Axon pCLAMP 10.4. Data were then analyzed using Clampfit 10.4 (Molecular Devices).
(§2) HEK293 cell culture and transfection: Transfection of HEK293 cells was carried out using Plus reagent (Invitrogen) and Lipofectamine (Invitrogen) according to standard protocols. For heterologous expression of TRP channels in HEK293 cells, 1 μg of TRPC5-GFP, TRPC6-GFP or TRPC4-GFP plasmids were used to transfect HEK293 cells in a 3.5 cm petri dish where cells were allowed to grow to 80% confluence. Electrophysiology was carried out after 16 h incubation.
(The patch-clamp technique gives a direct electrical read-out from membranes.)

Another assay has as its target T2, TRPC4 (Homo sapiens, UniProt Q9UBN4).
T2 construct: expressed in transfected cells; host or cells: HEK293
T2 sequence (Q9UBN4 1-977): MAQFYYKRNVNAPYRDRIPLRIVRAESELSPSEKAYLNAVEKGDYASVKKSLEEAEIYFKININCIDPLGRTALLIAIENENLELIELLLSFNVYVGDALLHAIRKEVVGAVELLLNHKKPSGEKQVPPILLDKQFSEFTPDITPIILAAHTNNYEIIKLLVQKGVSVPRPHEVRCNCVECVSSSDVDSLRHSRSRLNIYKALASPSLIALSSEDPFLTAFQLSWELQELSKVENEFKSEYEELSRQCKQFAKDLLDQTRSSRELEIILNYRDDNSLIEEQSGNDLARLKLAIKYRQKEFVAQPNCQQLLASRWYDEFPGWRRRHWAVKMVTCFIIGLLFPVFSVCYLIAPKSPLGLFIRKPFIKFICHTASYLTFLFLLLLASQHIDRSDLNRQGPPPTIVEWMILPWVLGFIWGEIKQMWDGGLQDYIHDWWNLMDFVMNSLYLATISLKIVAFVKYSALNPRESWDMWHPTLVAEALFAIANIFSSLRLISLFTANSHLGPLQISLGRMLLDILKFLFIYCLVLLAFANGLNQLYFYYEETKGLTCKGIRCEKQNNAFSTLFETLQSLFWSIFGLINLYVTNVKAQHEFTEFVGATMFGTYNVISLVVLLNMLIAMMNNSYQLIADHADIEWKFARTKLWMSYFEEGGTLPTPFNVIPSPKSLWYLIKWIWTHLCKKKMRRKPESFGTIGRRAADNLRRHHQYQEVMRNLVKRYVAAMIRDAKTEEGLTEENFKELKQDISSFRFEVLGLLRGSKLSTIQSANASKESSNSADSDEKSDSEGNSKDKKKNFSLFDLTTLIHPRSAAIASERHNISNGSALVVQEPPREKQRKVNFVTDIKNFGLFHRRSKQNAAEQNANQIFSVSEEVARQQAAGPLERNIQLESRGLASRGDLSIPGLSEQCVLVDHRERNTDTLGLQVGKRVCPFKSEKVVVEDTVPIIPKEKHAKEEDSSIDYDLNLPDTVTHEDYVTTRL
Briefly: HEK293 whole-cell patch clamp recording, TRPC4 inhibition assay. The assay is classed as cell-based. Conditions: 30 μM, HEK cells expressing TRPC4, CCh 100 μM. The procedure: as §1, §2

For the compound `c1ccc(Cn2c(NCc3ccco3)nc3ccccc32)cc1` [AC1903], the “block of OAG-induced TRPC6 current” value on TRPC6 is “failed to block”. Further, the “block of carbachol (CCh)-induced TRPC4 current” value at TRPC4 was “failed to block”.
